The record followed here is US11564959B2 (SHISEIDO COMPANY, LTD., priority 2016, dated 2023).

Test [1] relates to MCSP-positive cells. Briefly: Tissue culture of human skin with MMP and heparanase inhibiting agents, MCSP staining. The note with it: CGS27023A 10 μM and BIPBIPU 10 μM added together, 4 days of culturing, abdominal skin. Type of test: cell-based. From the text:
DAPI was also used for nuclear staining. […] DAPI was also used for nuclear staining.

Test [2] concerns PDGF-BB. Kind of test: Membrane array of cytokines in epidermis protein extract of three-dimensional skin model. Type of test: cell-based. The following applies: CGS27023A 10^−5 M and BIPBIPU 10^−5 M added together, 2nd, 4th and 7th day, data not shown. From the text: The epidermis was collected from the skin model on the 2nd day, 4th day and 7th day of culturing, and RIPA buffer by Nacalai was used to prepare a protein extract. Using a membrane array kit (ab134002) by Abcam Co., the amounts of different cytokines in the protein extract were detected using a LAS-1000UVmini by Fujifilm and digitized with the included software, and a graph was drawn (data not shown). The cytokines whose amounts increased compared to the control were selected as candidate cytokines that promote type V collagen expression. Three cytokines including PDGF-BB were selected as candidate cytokines.

Test [3] relates to laminin 511. The following applies: CGS27023A 10 μM and BIPBIPU 10 μM added together, 4 days of culturing, abdominal skin.
Experimental: The taken samples were cultured for 4 days in culture medium containing the MMP9 inhibiting agent CGS270234 (10 μM) and the heparanase inhibiting agent BIPBIU (10 μM).
Test [4] concerns the target T1, recombinant human MMP-9 (Homo sapiens, UniProt P14780).
T1 construct: purchased Enzo Life Sciences Inc
Briefly: MMP-9 colorimetric drug discovery kit assay. The following applies: 0.0001%, 0.001% and 0.01% HEI, FIG. 9. Type of test: biochemical. As to the method:
An MMP9 assay was carried out using a Matrix Metalloproteinase-9 (MMP-9) colorimetric drug discovery kit (Enzo Life Sciences Inc.). Specifically, HEI was added to a recombinant human MMP-9 enzyme solution to 0.0001%, 0.001% and 0.01% concentration. After mixing with chromogenic MMP-9 substrate, the absorbance at 412 nm was measured every other minute. The MMP-9 inhibition rate (%) for HEI was calculated from the slope of the absorbance (OD/min).

Test [5] is described as follows: In vivo human application test of HEI solution on the face, TEWL and stratum corneum moisture. The following applies: 1.5% HEI solution on one side of the face, twice a day for 4 weeks, water on other side. As to the method:
Next, 20 males from 20 to 50 years of age were asked to apply a 1.5% HEI solution on one side of the face and water on the other side of the face, twice a day for 4 weeks. Before application, 2 weeks after application and 4 weeks after application, the TEWL was measured using a Vapometer, and a Corneometer was used to measure the stratum corneum moisture content.

Test [6] deals with T2, heparanase (Homo sapiens, UniProt Q9Y251).
T2 construct: endogenous in cells; host or cells: A431 cell lysate
T2 sequence (Q9Y251 158-543 limits assumed): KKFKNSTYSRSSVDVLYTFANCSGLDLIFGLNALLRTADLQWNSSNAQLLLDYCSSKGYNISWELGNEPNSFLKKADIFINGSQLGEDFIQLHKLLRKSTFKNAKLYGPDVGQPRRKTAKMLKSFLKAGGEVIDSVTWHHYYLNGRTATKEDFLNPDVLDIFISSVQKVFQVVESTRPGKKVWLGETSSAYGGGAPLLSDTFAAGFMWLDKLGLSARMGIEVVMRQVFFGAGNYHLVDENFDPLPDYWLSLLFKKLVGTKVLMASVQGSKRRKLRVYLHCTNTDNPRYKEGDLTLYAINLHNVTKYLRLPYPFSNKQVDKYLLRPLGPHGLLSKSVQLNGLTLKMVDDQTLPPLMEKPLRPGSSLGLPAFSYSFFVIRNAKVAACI
T2 sequence (Q9Y251 36-109 limits assumed): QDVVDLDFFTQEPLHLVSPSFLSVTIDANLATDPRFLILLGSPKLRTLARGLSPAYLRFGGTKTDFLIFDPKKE
Briefly: Heparanase assay on heparan sulfate immobilization plate with A431 cell lysate. The following applies: 0.0005%, 0.005% or 0.05% HEI, 3 hours at 37° C., FIG. 8. Type of test: biochemical. As to the method:
A heparanase assay was carried out using a heparan sulfate immobilization plate, as described in Behzad F, et al., Analytical Biochemistry, 320, pp. 207-213, 2003. Specifically, heparan sulfate (Seikagaku, Tokyo, Japan) was reacted with photobiotin to prepare biotinylated heparan sulfate. The biotinylated heparan sulfate was fixed onto a carbohydrate-binding surface plate (Coastar, Tokyo, Japan). A431 cell lysate (50 μg/ml) and 0% HEI, 0.0005% HEI, 0.005% HEI or 0.05% HEI were added onto the biotinylated heparan sulfate immobilized plate, incubated for 3 hours at 37° C., and then rinsed with PBS-T. Next, peroxidase-avidin (Vector Laboratories, Inc. CA, USA) was incubated at 37° C. for 1 hour. A 3,3′,5,5′-tetramethylbenzidine (TMB) solution (Bio-Rad, Tokyo, Japan) was added, and the plate was further incubated at room temperature for 30 minutes. The absorbance at 450 nm was measured to determine the heparanase inhibiting effect.

The test system of test [7] is laminin 511. Briefly: Ex vivo human skin organ culturing with HEI, laminin 511 staining. The following applies: 0.01% HEI, 5 days, abdominal skin.
The test system of test [8] is filaggrin. Kind of test: Ex vivo human skin organ culturing with HEI, filaggrin staining. The note with it: 0.01% HEI, 5 days. Type of test: cell-based. The procedure:
(§1) The taken samples were cultured for 5 days in culture medium containing 0.01% HEI. […] The excess moisture adhering to the cultured skin sample was wiped off with a Kimtowel, and after allowing it to stand for 5 minutes, a Vapometer was used for TEWL measurement, and a Corneometer was used to measure the stratum corneum moisture content.
DAPI was also used for nuclear staining.

Test [9] deals with human skin. Briefly: Ex vivo human skin organ culturing with HEI, TEWL and stratum corneum moisture. The following applies: 0.01% HEI, 5 days. Type of test: cell-based. As to the method: as §1
For test [10], the system named is MCSP-positive cells. Briefly: Ex vivo human skin organ culturing with HEI, MCSP staining. The note with it: 0.01% HEI, 5 days, abdominal skin. Type of test: cell-based.
For test [11], the system named is gene COL5A1 for type V collagen. Briefly: COL5A1 expression in human fibroblasts after addition of recombinant cytokine. Type of test: cell-based. The note with it: normal human fibroblasts, 24 hours. The procedure: The selected recombinant cytokine proteins were purchased from R&D Co. Normal human fibroblasts from skin harvested from 14-month-old children were cultured for 24 hours in 10% FBS-added DMEM, and the medium in the cultured product was exchanged with another medium added to DMEM medium containing 25% serum for a prescribed concentration of each cytokine, after which culturing was continued for 24 hours. After culturing, the cells were collected and the mRNA was extracted with Trizol. The cDNA was rapidly prepared, and the aforementioned primers were used for real-time PCR to evaluate the gene expression levels of the gene COL5A1 for type V collagen (FIG. 15).

Structures can show the parent of a compound that is named as a salt.

T1 sequence (P14780 107-444 limits assumed): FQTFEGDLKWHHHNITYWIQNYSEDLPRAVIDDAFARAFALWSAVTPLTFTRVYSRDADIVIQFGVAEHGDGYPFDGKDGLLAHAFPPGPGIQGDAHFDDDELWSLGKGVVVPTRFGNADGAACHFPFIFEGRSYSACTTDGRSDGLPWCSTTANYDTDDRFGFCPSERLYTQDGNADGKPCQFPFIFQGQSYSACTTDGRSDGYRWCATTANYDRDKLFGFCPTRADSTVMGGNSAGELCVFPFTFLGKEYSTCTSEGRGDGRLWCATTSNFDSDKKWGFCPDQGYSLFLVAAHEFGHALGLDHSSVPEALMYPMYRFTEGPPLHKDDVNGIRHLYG

Turning to `O=C(Nc1ccc(-c2nc3ccccc3[nH]2)cc1)Nc1ccc(-c2nc3ccccc3[nH]2)cc1` [BIPBIPU, 1-[4-(1H-benzoimidazol-2-yl)phenyl]-3-[4-(1H-benzoimidazol-2-yl)phenyl]urea], the “MCSP-positive cells after tissue culture” value in test [1] is reported as “maintenance or augmentation of MCSP”. The “amount of PDGF-BB in epidermis protein extract compared to the control” value in test [2] was “increased”.
Regarding `COc1ccc(S(=O)(=O)N(Cc2cccnc2)[C@@H](C(=O)NO)C(C)C)cc1` [CGS27023A, N-hydroxy-2(R)-[[(4-methoxy-phenyl)sulfonyl](3-picolyl)amino]-3-methylbutanamide hydrochloride], the “laminin 511 in the basal membrane after tissue culture” value in [3] is “augmentation of laminin 511”. In test [1], the “MCSP-positive cells after tissue culture” value is listed as “maintenance or augmentation of MCSP”. In [2], the “amount of PDGF-BB in epidermis protein extract compared to the control” value is listed as “increased”.
Consider `O=C1NCCN1CCO` [HEI, 1-(2-Hydroxyethyl)-2-imidazolidinone], for which the MMP9 inhibition result in test [4] is given as “inhibit MMP9 activity in a dose-dependent manner”. The TEWL entry in test [5] and in [9] (Vapometer) was “decreased” in each case. Moreover, the “stratum corneum moisture content” value in test [5] and in [9] (Corneometer) was “increased” in each case. For the same molecule, the heparanase inhibiting effect entry in test [6] was “inhibit heparanase activity in a dose-dependent manner”. Further, the “amount of laminin 511 after culturing” value in [7] was “maintained”. Further, the filaggrin protein expression result in test [8] is “tendency for increase”. The “MCSP-positive cell count on the basal membrane after culturing” value in [10] is “maintained”.

B1: PDGF-BB: recombinant cytokine protein purchased from R&D Co. (protein, UniProt P01127 82-190, looked up)
Platelet-derived growth …: SLGSLTIAEPAMIAECKTRTEVFEISRRLIDRTNANFLVWPPCVEVQRCSGCCNNRNVQCRPTQVQLRPVQVRKIEIVRKKPIFKKATVTLEDHLACKCETVAAARPVT
On to B1, for which the “type V collagen production (COL5A1 gene expression)” value in test [11] is “significantly increased”.
